Reference: the supplement of paper PMC11208160

Assay: recombinant UMI read abundance after kanamycin selection (control-corrected) (log10(CPM+1)); higher = more efficient recombination; extreme values may be limits of the assay; sequences stand for … in AGTGCAGAGAAAATCGGCCAGTTTTCTCTGCCTGCAGTCCGCATGCCGTGGGACCCCTTGGGTTCTAACCTGTTGCCTAGATTTATGCAGCGGACTGCCTTTCTCCCAAAGTGATAAACCGG…AGGTTGGTTTCACT; site = the 11-nt donor
Outline: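 Sequencing read counts were converted to CPM, averaged over two replicates and scaled by control-derived factors. Results are given as log10(CPM+1). The reads covered the donor–target junction of recombinant UMIs from a pooled Escherichia coli screen of donor and donor-binding-loop pairs for the IS621 bridge recombinase.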
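Note: IS621 bridge recombinase in Escherichia coli cells against a fixed T5 target plasmid.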

Sequence	recombinant UMI read abundance (log10)
GGCCACCCATGGACCGGTTTTCCCGGTAATCCGTATTTGCG (site GGCCACCCTCG)	0.00687
GGCCACCCATGGACCGGTTTTCCCGGTAATCCGTATTTGCT (site GGCCACCCTAA)	0.0723
GGCCACCCATGGACCGGTTTTCCCGGTAATCCGTATTTGCT (site GGCCACCCTAC)	0.0158
GGCCACCCATGGACCGGTTTTCCCGGTAATCCGTATTTGCT (site GGCCACCCTAG)	0
GGCCACCCATGGACCGGTTTTCCCGGTAATCCGTATTTGCT (site GGCCACCCTAT)	0.00294
GGCCACCCATGGACCGGTTTTCCCGGTAATCCGTATTTGGT (site GGCCACCCTAA)	0.113
GGCCACCCATGGACCGGTTTTCCCGGTAATCCGTATTTGGT (site GGCCACCCTAC)	0.00471
GGCCACCCATGGACCGGTTTTCCCGGTAATCCGTATTTGGT (site GGCCACCCTAG)	0
GGCCACCCATGGACCGGTTTTCCCGGTAATCCGTATTTGGT (site GGCCACCCTAT)	0.0141
GGCCAGTCATGGACCGGTTTTCCCGGTAATCCGTATTTGCA (site GGCCAGTCTTG)	2.73
GGCCATCCATGGACCGGTTTTCCCGGTAATCCGTATTTGGC (site GGCCATCCTGC)	0
GGCCATCCATGGACCGGTTTTCCCGGTAATCCGTATTTGTT (site GGCCAACCTAA)	0
GGCCATCCATGGACCGGTTTTCCCGGTAATCCGTATTTGTT (site GGCCACCCTAA)	0.0125
GGCCATCCATGGACCGGTTTTCCCGGTAATCCGTATTTGTT (site GGCCAGCCTAA)	0.00245
GGCCATCCATGGACCGGTTTTCCCGGTAATCCGTATTTGTT (site GGCCATCCTAA)	0.0172
GGCCCGCCATGGACCGGTTTTCCCGGTAATCCGTATTTGCC (site GGCCCGCCTGG)	0
GGCCCTACATGGACCGGTTTTCCCGGTAATCCGTATTTGTG (site GGCCCTACTCA)	0.33
GGCCGCACATGGACCGGTTTTCCCGGTAATCCGTATTTGCA (site GGCCGCACTTG)	1.77
GGCCGCCCATGGACCGGTTTTCCCGGTAATCCGTATTTGTT (site GGCCACCCTAA)	0.0225
GGCCGCCCATGGACCGGTTTTCCCGGTAATCCGTATTTGTT (site GGCCCCCCTAA)	0.00441
GGCCGCCCATGGACCGGTTTTCCCGGTAATCCGTATTTGTT (site GGCCGCCCTAA)	0.00876
GGCCGCCCATGGACCGGTTTTCCCGGTAATCCGTATTTGTT (site GGCCTCCCTAA)	0.0158
GGCCGTACATGGACCGGTTTTCCCGGTAATCCGTATTTGCT (site AGCCGTACTAG)	0.00424
GGCCGTACATGGACCGGTTTTCCCGGTAATCCGTATTTGCT (site CGCCGTACTAG)	0.413
GGCCGTACATGGACCGGTTTTCCCGGTAATCCGTATTTGCT (site GGCCGTACTAG)	1.83

Sequence	recombinant UMI read abundance (log10)
GGCCGTACATGGACCGGTTTTCCCGGTAATCCGTATTTGCT (site TGCCGTACTAG)	0.302
GGCCTTTCATGGACCGGTTTTCCCGGTAATCCGTATTTGAC (site AGCCTTTCTGT)	0
GGCCTTTCATGGACCGGTTTTCCCGGTAATCCGTATTTGAC (site CGCCTTTCTGT)	0
GGCCTTTCATGGACCGGTTTTCCCGGTAATCCGTATTTGAC (site GGCCTTTCTGT)	0
GGCCTTTCATGGACCGGTTTTCCCGGTAATCCGTATTTGAC (site TGCCTTTCTGT)	0
GGCCTTTCATGGACCGGTTTTCCCGGTAATCCGTATTTGTC (site GGCCTTTCTGA)	1.46
GGCGATCCATGGACCGGTTTTCCCGGTAATCCGTATTTGAA (site GGCAATCCTTT)	0.0192
GGCGATCCATGGACCGGTTTTCCCGGTAATCCGTATTTGAA (site GGCCATCCTTT)	0.0198
GGCGATCCATGGACCGGTTTTCCCGGTAATCCGTATTTGAA (site GGCGATCCTTT)	0.785
GGCGATCCATGGACCGGTTTTCCCGGTAATCCGTATTTGAA (site GGCTATCCTTT)	0.141
GGCGCCTCATGGACCGGTTTTCCCGGTAATCCGTATTTGGG (site GGCGCCTCTCC)	0.0423
GGCGGGGCATGGACCGGTTTTCCCGGTAATCCGTATTTGTA (site GGCGGGGCTTA)	1.53
GGCGTAGCATGGACCGGTTTTCCCGGTAATCCGTATTTGTG (site GGCGTAGCTCA)	0.747
GGCTAGGCATGGACCGGTTTTCCCGGTAATCCGTATTTGGT (site AGCTAGGCTAC)	0.208
GGCTAGGCATGGACCGGTTTTCCCGGTAATCCGTATTTGGT (site CGCTAGGCTAC)	0.399
GGCTAGGCATGGACCGGTTTTCCCGGTAATCCGTATTTGGT (site GGCTAGGCTAC)	0.271
GGCTAGGCATGGACCGGTTTTCCCGGTAATCCGTATTTGGT (site TGCTAGGCTAC)	0.0118
GGCTCAGCATGGACCGGTTTTCCCGGTAATCCGTATTTGGG (site AGCTCAGCTCC)	0.00802
GGCTCAGCATGGACCGGTTTTCCCGGTAATCCGTATTTGGG (site CGCTCAGCTCC)	0.0293
GGCTCAGCATGGACCGGTTTTCCCGGTAATCCGTATTTGGG (site GGCTCAGCTCC)	0.02
GGCTCAGCATGGACCGGTTTTCCCGGTAATCCGTATTTGGG (site TGCTCAGCTCC)	0.00932
GGCTGACCATGGACCGGTTTTCCCGGTAATCCGTATTTGAA (site GGCTGACCTTT)	0.00353
GGCTTAACATGGACCGGTTTTCCCGGTAATCCGTATTTGTC (site GGCTTAACTGA)	0.732
GGGAAGACATGGACCGGTTTTCCCGGTAATCCGTATTTGGC (site GGGAAGACTGC)	1.57
GGGACCTCATGGACCGGTTTTCCCGGTAATCCGTATTTGGT (site GGGACCTCTAC)	2

Sequence	recombinant UMI read abundance (log10)
GGGACCTCATGGACCGGTTTTCCCGGTAATCCGTATTTGTA (site GGGACCTCTTA)	2.24
GGGACGACATGGACCGGTTTTCCCGGTAATCCGTATTTGCA (site AGGAAGACTTG)	0
GGGACGACATGGACCGGTTTTCCCGGTAATCCGTATTTGCA (site GGGACGACTTG)	2.07
GGGAGTCCATGGACCGGTTTTCCCGGTAATCCGTATTTGTT (site CGGAATCCTAA)	0.00442
GGGAGTCCATGGACCGGTTTTCCCGGTAATCCGTATTTGTT (site GGGAGTCCTAA)	0.709
GGGAGTTCATGGACCGGTTTTCCCGGTAATCCGTATTTGCA (site GGGAGTTCTTG)	1.13
GGGATCTCATGGACCGGTTTTCCCGGTAATCCGTATTTGGG (site GGGATCTCTCC)	1.71
GGGATTTCATGGACCGGTTTTCCCGGTAATCCGTATTTGGG (site GGGATTTCTCC)	0.679
GGGCACCCATGGACCGGTTTTCCCGGTAATCCGTATTTGTT (site GGACACCCTAA)	0.0162
GGGCACCCATGGACCGGTTTTCCCGGTAATCCGTATTTGTT (site GGCCACCCTAA)	0.161
GGGCACCCATGGACCGGTTTTCCCGGTAATCCGTATTTGTT (site GGGCACCCTAA)	0.325
GGGCACCCATGGACCGGTTTTCCCGGTAATCCGTATTTGTT (site GGTCACCCTAA)	0.268
GGGCCGGCATGGACCGGTTTTCCCGGTAATCCGTATTTGGC (site AGGCCGGCTGC)	0
GGGCCGGCATGGACCGGTTTTCCCGGTAATCCGTATTTGGC (site CGGCCGGCTGC)	0
GGGCCGGCATGGACCGGTTTTCCCGGTAATCCGTATTTGGC (site GGGCCGGCTGC)	0
GGGCCGGCATGGACCGGTTTTCCCGGTAATCCGTATTTGGC (site TGGCCGGCTGC)	0
GGGCCTACATGGACCGGTTTTCCCGGTAATCCGTATTTGGG (site GGGCCTACTCC)	0
GGGCTCACATGGACCGGTTTTCCCGGTAATCCGTATTTGAT (site GAGCTCACTAT)	0.00773
GGGCTCACATGGACCGGTTTTCCCGGTAATCCGTATTTGAT (site GCGCTCACTAT)	0.802
GGGCTCACATGGACCGGTTTTCCCGGTAATCCGTATTTGAT (site GGGCTCACTAT)	1.73
GGGCTCACATGGACCGGTTTTCCCGGTAATCCGTATTTGAT (site GTGCTCACTAT)	1.11
GGGGAACCATGGACCGGTTTTCCCGGTAATCCGTATTTGAT (site AGGGAACCTAT)	0
GGGGAACCATGGACCGGTTTTCCCGGTAATCCGTATTTGAT (site CGGGAACCTAT)	0
GGGGAACCATGGACCGGTTTTCCCGGTAATCCGTATTTGAT (site GGGGAACCTAT)	0
GGGGAACCATGGACCGGTTTTCCCGGTAATCCGTATTTGAT (site TGGGAACCTAT)	0
